{"source": "paper PMC3127140", "about": "“In Vivo Anti-Tumor Activity of Polypeptide HM-3 Modified by Different Polyethylene Glycols (PEG)” (International Journal of Molecular Sciences, 2011)", "tested_on": "Human hepatic carcinoma SMMC-7721 cell line", "experiment": "Inhibitory effect on growth of human hepatoma SMMC-7721 xenografts in nude mice (tumor weight / tumor volume)", "type": "in vivo, BALB/c nude mouse", "settings": "SMMC-7721 xenograft in BALB/c nude mice, n = 6 per group, i.v. for 21 days, tumors weighed the next day; (W − Wt)/W versus normal saline control; Taxol 10 mg/kg twice a week; HM-3 3 mg/(kg·d) twice a day; ALD-mPEG5k-HM-3 11.4 mg/(kg·d) once a day; ALD-mPEG10k-HM-3 and SC-mPEG10k-HM-3 19.9 mg/(kg·2d) every two days; SC-mPEG20k-HM-3 36.7 mg/(kg·2d) every two days (dose as total PEG conjugate)", "method": "Human hepatic carcinoma SMMC-7721 cell line was purchased from American type Cell Culture (ATCC, Shanghai, China) and maintained in Dulbecco’s modified Eagle’s medium (DMEM) with 10% fetal bovine serum and antibiotics. BALB/c nude female mouse (SPF grade, 4–5 w, 20.9 ± 0.492 g) were purchased from the Shanghai Laboratory Animal Center of the Chinese Academy of Sciences.\nSMMC-7721 cells were cultured in DMEM medium under 5% CO2/saturated humidified air at 37 °C. Cells were digested with the mixture of the trypsin (0.25%) and EDTA (0.02%) at logarithmic growth phase and passaged every 3–4 day. […]\nAll the mice (20 g) were administrated intravenously for 21 days and the tumor volumes were measured every two days. […] Antitumor ratio determined by the tumor volumes is (V − Vt)/V (V is the average tumor volume of the control group, and Vt is the average tumor volume of the treated group). The antitumor ratio by the tumor weights was also calculated as (W − Wt)/W (W is the average tumor weight of the control group, and Wt is the average tumor weight of the treatment group).\nThe data was analyzed using the statistics software SPSS13.0, which are expressed as mean ± SD. Statistical significance was assessed using the Student t test. […]", "data": [{"smiles": "CC(=O)O[C@H]1C(=O)[C@@]2(C)[C@H]([C@H](OC(=O)c3ccccc3)[C@]3(O)C[C@H](OC(=O)[C@H](O)[C@@H](NC(=O)c4ccccc4)c4ccccc4)C(C)=C1C3(C)C)[C@]1(OC(C)=O)CO[C@@H]1C[C@@H]2O", "note": "[Taxol, paclitaxel]", "values": [{"measurement": "Tumor weight inhibition rate (inhibition rate of average tumor weight)", "value": 44.50, "unit": "%"}]}]}
